This assay deals with Human dermal fibroblasts from Friedreich's Ataxia patients. The assay can be described thus: Rescue of BSO-stressed FRDA fibroblasts (Calcein AM viability screen). Format: cell-based. The following applies: FRDA fibroblasts GM04078, 1 mM BSO, 48 h. As to the method: An initial screen was performed to identify compounds effective for the amelioration of redox disorders. Test samples, 4 reference compounds (idebenone, decylubiquinone, Trolox and alpha-tocopherol), and solvent controls were tested for their ability to rescue FRDA fibroblasts stressed by addition of L-buthionine-(S,R)-sulfoximine (BSO), as described in Jauslin et al., Hum. Mol. Genet. 11(24):3055 (2002), Jauslin et al., FASEB J. 17:1972-4 (2003), and International Patent Application WO 2004/003565. […] This specific BSO-mediated cell death can be prevented by administration of antioxidants or molecules involved in the antioxidant pathway, such as alpha-tocopherol, selenium, or small molecule glutathione peroxidase mimetics. However, antioxidants differ in their potency, i.e. the concentration at which they are able to rescue BSO-stressed FRDA fibroblasts.
MEM (a medium enriched in amino acids and vitamins, catalog no. 1-31F24-I) and Medium 199 (M199, catalog no. 1-21F22-I) with Earle's Balanced Salts, without phenol red, were purchased from Bioconcept. Fetal Calf Serum was obtained from PAA Laboratories. Basic fibroblast growth factor and epidermal growth factor were purchased from PeproTech. Penicillin-streptomycin-glutamine mix, L-buthionine (S,R)-sulfoximine, (+)-alpha-tocopherol, decylubiquinone, and insulin from bovine pancreas were purchased from Sigma. Trolox (6-Hydroxy-2,5,7,8-tetramethylchromane-2-carboxylic acid) was obtained from Fluka. Idebenone was obtained from Chemo Iberica. Calcein AM was purchased from Anaspec. Cell culture medium was made by combining 125 ml M199 EBS, 50 ml Fetal Calf Serum, 100 U/ml penicillin, 100 microgram/ml streptomycin, 2 mM glutamine, 10 microgram/ml insulin, 10 ng/ml EGF, and 10 ng/ml bFGF; MEM EBS was added to make the volume up to 500 ml. A 10 mM BSO solution was prepared by dissolving 444 mg BSO in 200 ml of medium (Invitrogen, Carlsbad, Ca.) with subsequent filter-sterilization. During the course of the experiments, this solution was stored at +4° C. The cells were obtained from the Coriell Cell Repositories (Camden, N.J.; repository number GM04078) and grown in 10 cm tissue culture plates. Every third day, they were split at a 1:3 ratio.
The test samples were supplied in 1.5 ml glass vials. The compounds were diluted with DMSO, ethanol or PBS to result in a 5 mM stock solution. Once dissolved, they were stored at −20° C. Reference antioxidants (idebenone, decylubiquinone, alpha-tocopherol and Trolox) were dissolved in DMSO.
Test samples were screened according to the following protocol:
A culture with FRDA fibroblasts was started from a 1 ml vial with approximately 500,000 cells stored in liquid nitrogen. Cells were propagated in 10 cm cell culture dishes by splitting every third day in a ratio of 1:3 until nine plates were available. Once confluent, fibroblasts were harvested. For 54 micro titer plates (96 well-MTP) a total of 14.3 million cells (passage eight) were re-suspended in 480 ml medium, corresponding to 100 microliters medium with 3,000 cells/well. The remaining cells were distributed in 10 cm cell culture plates (500,000 cells/plate) for propagation. The plates were incubated overnight at 37° C. in a atmosphere with 95% humidity and 5% CO2 to allow attachment of the cells to the culture plate.
10% DMSO (242.5 microliters) was added to a well of the microtiter plate. The test compounds were unfrozen, and 7.5 microliters of a 5 mM stock solution was dissolved in the well containing 242.5 microliters of 10% DMSO, resulting in a 150 micromolar master solution. Serial dilutions from the master solution were made. The period between the single dilution steps was kept as short as possible (generally less than 30 seconds). At least 4 hours after attachment into MTP, cells were then treated with the various compound dilutions.
Plates were kept overnight in the cell culture incubator. […]

Where [1] appears, read: Homo sapiens, average, compounds of the invention, read-out: Ec50 Average.
[2] abbreviates: Homo sapiens, average of three values, control compounds, read-out: EC50 Average.
[3] abbreviates: Homo sapiens, first of three experiments, read-out: EC50 Value 1.
Setting [4] is: Homo sapiens, second of three experiments, read-out: EC50 Value 2.
The mark [5] stands for this setting: Homo sapiens, third of three experiments, read-out: EC50 Value 3.

Read-outs that look alike come from different tables or passages of the source. Where only a bound is given, the exact number is not on record here.

With `CC1=C(C)C(=O)C(CCCc2nc3cc(Cl)ccc3s2)=C(C)C1=O`, under setting [1], the EC50 was 28 nM.
Still for that read-out and setting: the result for `CC1=C(C)C(=O)C(CCCc2nc3ccccc3o2)=C(C)C1=O` reads 20 nM.
The same measure, in the same setting: in the case of `CC1=C(C)C(=O)C(CCCc2nc3cccnc3[nH]2)=C(C)C1=O` it was 113 nM; in that of `CC1=C(C)C(=O)C(CCc2nc3ccccc3o2)=C(C)C1=O`, 18 nM; in that of `CC1=C(C)C(=O)C(CCCc2nc3ccc(C)cc3o2)=C(C)C1=O`, 7 nM.
The same measure, in the same setting: the result for `CC1=C(C)C(=O)C(CCCc2nc3cc(F)ccc3[nH]2)=C(C)C1=O` reads 9 nM; that for `CC1=C(C)C(=O)C(CCc2ncc(C)s2)=C(C)C1=O`, 27 nM; that for `CC1=C(C)C(=O)C(CCCc2nc3cc(C(F)(F)F)ccc3[nH]2)=C(C)C1=O`, 8 nM.
On to `CC1=C(C)C(=O)C(CCCc2nc3cc(C)ccc3[nH]2)=C(C)C1=O`, for which the concentration for a half-maximal effect (EC50) under setting [1] was 21 nM.
In the case of `CC1=C(C)C(=O)C(CCc2nc3ccccc3s2)=C(C)C1=O`, the EC50 under setting [1] is 6 nM.
The same measure, in the same setting: the result for `CC1=C(C)C(=O)C(CCCc2nc3ccccc3n2C)=C(C)C1=O` reads 25 nM.
For the compound `CCCCCCCCCCC1=C(C)C(=O)C(OC)=C(OC)C1=O` [decylubiquinone, reference compound], the EC50 under setting [2] is 38 nM, the EC50 under setting [3] is 50 nM, the half-maximal effective concentration (EC50) under setting [4] is 35 nM and the EC50 under setting [5] was 30 nM.
Turning to `CC1=C(C)C(=O)C(CCCc2nc3ccc(C(=O)NCCCO)cc3[nH]2)=C(C)C1=O`, the EC50 under setting [1] is above 200 nM.
Still for that read-out and setting: in the case of `CC1=C(C)C(=O)C(CCCc2nc3ccccc3[nH]2)=C(C)C1=O` it was 14 nM.
The same measure, in the same setting: the result for `CC1=C(C)C(=O)C(CCCc2nc3ccc(F)cc3[nH]2)=C(C)C1=O` reads 29 nM.
On to `CC1=C(C)C(=O)C(CCCn2cncn2)=C(C)C1=O`, for which the concentration for a half-maximal effect (EC50) under setting [1] was 426 nM.
`COC1=C(OC)C(=O)C(CCCCCCCCCCO)=C(C)C1=O` [Idebenone, reference compound]: the 50% effective concentration (EC50) reads like this: under setting [2], 1200 nM; under setting [3], 1500 nM; under setting [4], 1000 nM; under setting [5], 1000 nM.
As to `CC1=C(C)C(=O)C(CCCc2nc3cccc(F)c3[nH]2)=C(C)C1=O`, the EC50 under setting [1] was 18 nM.
The same measure, in the same setting: the result for `CC1=C(C)C(=O)C(CCCc2nc3ccc(Cl)cc3[nH]2)=C(C)C1=O` reads 6 nM; that for `CC1=C(C)C(=O)C(CCc2ncc[nH]2)=C(C)C1=O`, 225 nM.
Same read-out and setting: in the case of `CC1=C(C)C(=O)C(CCCn2c(C)nc3ccccc32)=C(C)C1=O` it was 26 nM.
For `CC1=C(C)C(=O)C(CCCc2nc3cc(C(F)(F)F)ccc3o2)=C(C)C1=O`, the concentration giving a half-maximal response (EC50) under setting [1] was 27 nM.
Still for that read-out and setting: in the case of `CC1=C(C)C(=O)C(CCCc2nc3ccc(C(N)=O)cc3[nH]2)=C(C)C1=O` it was 80 nM; in that of `CC1=C(C)C(=O)C(CCCn2cnc3ccccc32)=C(C)C1=O`, 21 nM; in that of `CC1=C(C)C(=O)C(CCn2c(C)nc3ccccc32)=C(C)C1=O`, 49 nM.
Same read-out and setting: in the case of `CC1=C(C)C(=O)C(CCc2nc3ccccc3[nH]2)=C(C)C1=O` it was 20 nM; in that of `CC1=C(C)C(=O)C(CCCc2nc3ccc(C(=O)N4CCN(C)CC4)cc3[nH]2)=C(C)C1=O`, 92 nM.
Still for that read-out and setting: the result for `CC1=C(C)C(=O)C(CCCc2nc3cccc(C)c3[nH]2)=C(C)C1=O` reads 7 nM; that for `CC1=C(C)C(=O)C(CCCc2nc3ccc(F)cc3o2)=C(C)C1=O`, 10 nM.
Consider `Cc1c(C)c2c(c(C)c1O)CCC(C)(C(=O)O)O2` (stereo not drawn) [Trolox, 6-Hydroxy-2,5,7,8-tetramethylchromane-2-carboxylic acid, reference compound], for which the half-maximal effective concentration (EC50) is 8700 nM under setting [2], 9000 nM under setting [3], 9000 nM under setting [4] and 8000 nM under setting [5].
With `Cc1c(C)c2c(c(C)c1O)CC[C@@](C)(CCC[C@H](C)CCC[C@H](C)CCCC(C)C)O2` [alpha-tocopherol, (+)-alpha-tocopherol, reference compound], the concentration giving a half-maximal response (EC50) runs as follows: (average of three values, control compounds, read-out: EC50 Average) 300 nM; (first of three experiments, read-out: EC50 Value 1) 400 nM; (second of three experiments, read-out: EC50 Value 2) 150 nM; (third of three experiments, read-out: EC50 Value 3) 350 nM.
Turning to `CC1=C(C)C(=O)C(CCn2cnc3ccccc32)=C(C)C1=O`, the EC50 under setting [1] is 28 nM.
The same measure, in the same setting: the result for `CC1=C(C)C(=O)C(CCCc2nc3ccccc3s2)=C(C)C1=O` reads 6 nM.
